Measured values taken from the NIST ThermoML archive (doi:10.1016/j.jct.2015.12.017).
Several values for one entry are separate records, joined by “and”; a condition that tells them apart may be missing. Equal entries are not always repeated.

Test: molar heat capacity at constant pressure
Settings: 101.33 kPa, Small sample (50 mg) DSC

O=P([O-])([O-])[O-].[Co+2].[Cs+] [cesium cobalt(II) phosphate]
Settings | molar heat capacity at constant pressure
451.9 K, Crystal 3 | 167.95 J/K/mol
454.4 K, Crystal 3 | 167.95 J/K/mol
456.9 K, Crystal 3 | 168.78 J/K/mol
459.4 K, Crystal 3 | 169.62 J/K/mol
460 K, Crystal 3 | 169.45 J/K/mol
461.9 K, Crystal 3 | 170.45 J/K/mol
464.4 K, Crystal 3 | 170.45 J/K/mol
466.9 K, Crystal 3 | 171.28 J/K/mol
469.4 K, Crystal 3 | 172.11 J/K/mol
470 K, Crystal 3 | 172.44 J/K/mol
471.9 K, Crystal 3 | 172.94 J/K/mol
474.4 K, Crystal 3 | 173.77 J/K/mol
476.9 K, Crystal 3 | 174.6 J/K/mol
479.4 K, Crystal 3 | 176.27 J/K/mol
480 K, Crystal 3 | 175.02 J/K/mol
481.9 K, Crystal 3 | 182.92 J/K/mol
484.4 K, Crystal 3 | 205.37 J/K/mol
486.9 K, Crystal 2 | 241.12 J/K/mol and 177.1 J/K/mol
486.9 K, Crystal 3 | 177.1 J/K/mol and 241.12 J/K/mol
489.8 K, Crystal 2 | 196.22 J/K/mol
490 K, Crystal 2 | 176.68 J/K/mol
491.9 K, Crystal 2 | 182.09 J/K/mol
494.4 K, Crystal 2 | 177.93 J/K/mol
496.9 K, Crystal 2 | 177.1 J/K/mol
499.4 K, Crystal 2 | 177.93 J/K/mol
500 K, Crystal 2 | 177.51 J/K/mol
501.9 K, Crystal 2 | 178.76 J/K/mol
504.4 K, Crystal 2 | 181.26 J/K/mol
506.9 K, Crystal 2 | 185.41 J/K/mol
509.4 K, Crystal 2 | 192.06 J/K/mol
510 K, Crystal 2 | 177.51 J/K/mol
511.6 K, Crystal 2 | 215.34 J/K/mol
514.4 K, Crystal 1 | 253.59 J/K/mol and 177.02 J/K/mol
514.4 K, Crystal 2 | 253.59 J/K/mol and 177.76 J/K/mol
517.3 K, Crystal 1 | 198.72 J/K/mol
518.6 K, Crystal 1 | 188.74 J/K/mol
520 K, Crystal 1 | 177.02 J/K/mol
520.2 K, Crystal 1 | 184.58 J/K/mol
523.1 K, Crystal 1 | 181.26 J/K/mol
526.9 K, Crystal 1 | 178.76 J/K/mol
529.4 K, Crystal 1 | 177.93 J/K/mol
530 K, Crystal 1 | 177.02 J/K/mol
531.9 K, Crystal 1 | 177.1 J/K/mol
534.4 K, Crystal 1 | 177.1 J/K/mol
536.9 K, Crystal 1 | 177.1 J/K/mol
539.4 K, Crystal 1 | 177.1 J/K/mol
540 K, Crystal 1 | 177.02 J/K/mol
541.9 K, Crystal 1 | 177.1 J/K/mol
544.4 K, Crystal 1 | 177.1 J/K/mol
546.9 K, Crystal 1 | 177.1 J/K/mol
549.4 K, Crystal 1 | 177.1 J/K/mol
550 K, Crystal 1 | 177.02 J/K/mol
551.9 K, Crystal 1 | 177.1 J/K/mol
554.4 K, Crystal 1 | 177.1 J/K/mol
556.9 K, Crystal 1 | 177.1 J/K/mol
559.4 K, Crystal 1 | 177.1 J/K/mol
560 K, Crystal 1 | 177.02 J/K/mol
561.9 K, Crystal 1 | 177.1 J/K/mol
564.4 K, Crystal 1 | 177.1 J/K/mol
566.9 K, Crystal 1 | 177.1 J/K/mol
569.4 K, Crystal 1 | 177.1 J/K/mol
570 K, Crystal 1 | 177.02 J/K/mol
571.9 K, Crystal 1 | 177.1 J/K/mol
574.4 K, Crystal 1 | 177.1 J/K/mol
576.9 K, Crystal 1 | 177.1 J/K/mol
579.4 K, Crystal 1 | 177.1 J/K/mol
580 K, Crystal 1 | 177.02 J/K/mol
581.9 K, Crystal 1 | 177.1 J/K/mol
584.4 K, Crystal 1 | 177.1 J/K/mol
586.9 K, Crystal 1 | 177.1 J/K/mol
589.4 K, Crystal 1 | 177.1 J/K/mol
590 K, Crystal 1 | 177.02 J/K/mol
591.9 K, Crystal 1 | 177.1 J/K/mol
594.4 K, Crystal 1 | 177.1 J/K/mol
596.9 K, Crystal 1 | 177.1 J/K/mol
599.4 K, Crystal 1 | 177.1 J/K/mol
600 K, Crystal 1 | 177.02 J/K/mol
601.9 K, Crystal 1 | 177.1 J/K/mol
604.4 K, Crystal 1 | 177.1 J/K/mol
606.9 K, Crystal 1 | 177.1 J/K/mol
609.4 K, Crystal 1 | 177.1 J/K/mol
610 K, Crystal 1 | 177.02 J/K/mol
611.9 K, Crystal 1 | 177.93 J/K/mol
614.4 K, Crystal 1 | 177.93 J/K/mol
616.9 K, Crystal 1 | 177.93 J/K/mol
619.4 K, Crystal 1 | 177.93 J/K/mol
620 K, Crystal 1 | 177.02 J/K/mol
621.9 K, Crystal 1 | 177.93 J/K/mol
624.4 K, Crystal 1 | 177.93 J/K/mol
626.9 K, Crystal 1 | 177.93 J/K/mol
629.4 K, Crystal 1 | 177.93 J/K/mol
630 K, Crystal 1 | 177.02 J/K/mol
631.9 K, Crystal 1 | 177.93 J/K/mol
634.4 K, Crystal 1 | 177.93 J/K/mol
636.9 K, Crystal 1 | 177.93 J/K/mol
639.4 K, Crystal 1 | 177.93 J/K/mol
640 K, Crystal 1 | 177.02 J/K/mol
641.9 K, Crystal 1 | 177.93 J/K/mol
644.4 K, Crystal 1 | 177.93 J/K/mol
646.9 K, Crystal 1 | 177.93 J/K/mol
649.4 K, Crystal 1 | 177.93 J/K/mol
650 K, Crystal 1 | 177.02 J/K/mol
